Assay results published in PubChem BioAssay (NCI).
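Results reflect a 48-hour exposure of cells in 96-well plates to compound at five concentrations. TGI marks complete inhibition of growth.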

What was measured:
Experiment in all cases: inhibition of tumour cell growth, NCI panel, 48 h
[1] = tested on: OVCAR-4 ovarian
[2] = tested on: HOP-62 NSCLC
[3] = tested on: UACC-62 melanoma
[4] = tested on: HOP-92 NSCLC
[5] = tested on: MDA-N
[6] = tested on: NCI/ADR-RES ovarian
[7] = tested on: CCRF-CEM leukemia
[8] = tested on: RXF 393 renal
[9] = tested on: U251 CNS
[10] = tested on: HCT-15 colon
[11] = tested on: EKVX NSCLC
[12] = tested on: NCI-H460 lung
[13] = tested on: A498 renal

| SMILES | TGI [1] | TGI [2] | TGI [3] | TGI [4] | TGI [5] | TGI [6] | TGI [7] | TGI [8] | TGI [9] | TGI [10] | TGI [11] | TGI [12] | TGI [13] |
| --- | --- | --- | --- | --- | --- | --- | --- | --- | --- | --- | --- | --- | --- |
| CCCCCCCCCCCCCCCCCCNc1ccn(C2OC(CO)C(OP(=O)(O)OCC3CCC(n4ccc(N)nc4=O)O3)C2O)c(=O)n1 (configuration not stated) | > 100 µM | > 100 µM | > 100 µM | > 100 µM | > 100 µM | > 100 µM | 58.1 µM | 45.1 µM | > 100 µM | > 100 µM | > 100 µM | > 100 µM | – |
| CNC(=O)N(CCC#N)CCN(CCN(C(=O)NC)c1ccccc1)C(=O)NC | > 100 µM | > 100 µM | > 100 µM | > 100 µM | > 100 µM | > 100 µM | > 100 µM | > 100 µM | > 100 µM | > 100 µM | > 100 µM | > 100 µM | – |
| Cc1cc(S(=O)(=O)Nc2nc(N)n(C)n2)c(S)cc1Cl | > 10 µM | > 10 µM | > 10 µM | – | > 10 µM | > 10 µM | > 10 µM | > 10 µM | > 10 µM | > 10 µM | > 10 µM | > 10 µM | > 10 µM |
| Nc1nc(=O)n(C2OC(CO)C(O)C2O)cc1F (configuration not stated) | > 100 µM | 0.175 µM | 5.3 µM | 5.9 µM | – | > 100 µM | > 43.8 µM | > 100 µM | > 100 µM | > 100 µM | > 40.9 µM | – | > 100 µM |
| COc1ccc(C2=C(OC(C)=O)c3cccn3-c3ccccc3S2)cc1 | > 10 µM | > 10 µM | > 10 µM | > 10 µM | 1.44 µM | – | > 10 µM | 6.44 µM | – | > 10 µM | – | – | – |
| C=CCC1(O)c2cccc(O)c2C(=O)c2c(O)cccc21 | > 100 µM | > 100 µM | – | 88.9 µM | 45 µM | 43 µM | – | 53.4 µM | 69.1 µM | 47.9 µM | 92.2 µM | > 100 µM | 79.4 µM |
| CCCCc1ccc(Nc2nc(Cl)c3[nH]cnc3n2)cc1 | > 100 µM | 27.8 µM | 31.9 µM | 26.3 µM | 43.1 µM | 47.7 µM | > 100 µM | 31.6 µM | – | 34.4 µM | > 100 µM | – | 55.4 µM |
| COC(=O)[C@]1(c2cc3ccccc3n2S(=O)(=O)c2ccccc2)CC2CCC1NC2 (some centres not stated) | 48.3 µM | 34 µM | 29.5 µM | 24.4 µM | 27.8 µM | 44.6 µM | 56.8 µM | 25.7 µM | 26.4 µM | 40.5 µM | 30.1 µM | 26.9 µM | – |
| CC(C)(C)OC(=O)C1/C(=C/CO)CN1C(=O)OC(C)(C)C (configuration not stated) | > 100 µM | > 100 µM | > 100 µM | > 100 µM | > 100 µM | > 100 µM | > 100 µM | – | – | > 100 µM | > 100 µM | > 100 µM | > 100 µM |
| COc1cc(Cn2c3c(c4cc(O)ccc42)C(=O)c2ccccc2C3=O)cc(OC)c1 | 33.6 µM | 8.78 µM | 7.64 µM | 19.7 µM | > 100 µM | 28.8 µM | – | 35.5 µM | 18.6 µM | > 100 µM | 48.2 µM | 32.9 µM | 38.6 µM |
| c1ccc(C2CC(N3CCOCC3)=Nc3ccccc3N2)cc1 (configuration not stated) | > 100 µM | > 100 µM | > 100 µM | – | > 100 µM | > 100 µM | > 100 µM | > 100 µM | > 100 µM | > 100 µM | > 100 µM | > 100 µM | > 100 µM |
| COc1cc2c[n+](C)c3c4ccccc4ccc3c2cc1OC | 28.6 µM | 37.4 µM | 18 µM | – | > 36.7 µM | > 100 µM | > 100 µM | 32.1 µM | 10.3 µM | > 100 µM | > 48.2 µM | > 51.2 µM | > 65.2 µM |
| Cc1ccc(S(=O)(=O)C2=c3ncccc3=C3C(=O)c4ccccc4C(=O)C32)cc1 (configuration not stated) | 64.4 µM | 9.14 µM | 69.7 µM | > 89.5 µM | > 100 µM | > 100 µM | > 100 µM | > 31.6 µM | > 100 µM | > 100 µM | > 100 µM | > 56.9 µM | – |
| Cc1ccc(C2SC(N)=Nc3c2c(C)nn3C(=O)c2ccncc2)cc1 (configuration not stated) | > 10 µM | > 10 µM | > 10 µM | > 10 µM | > 10 µM | > 10 µM | > 10 µM | > 10 µM | > 10 µM | > 10 µM | – | > 10 µM | – |
| Nc1ncnc2c1ncn2CC(OCP(=O)(O)O)Oc1ccccc1 (configuration not stated) | > 100 µM | > 100 µM | > 100 µM | > 100 µM | > 100 µM | > 100 µM | > 100 µM | > 100 µM | > 100 µM | > 100 µM | > 100 µM | – | > 100 µM |
| CCNC1CC(C(C)(C)NCC)CC=C1C (configuration not stated) | > 100 µM | > 100 µM | > 100 µM | > 100 µM | > 100 µM | > 100 µM | > 100 µM | – | > 100 µM | > 100 µM | > 100 µM | > 100 µM | – |
| Cc1c(-c2ccccc2)n(C)c2cn[nH]c(=O)c12 | – | 80.3 µM | > 100 µM | > 100 µM | > 100 µM | 69.4 µM | > 100 µM | – | > 100 µM | > 100 µM | > 100 µM | > 100 µM | > 100 µM |
| Cc1cccc(C)c1NC(=S)/N=C/C1=C(O)c2ccccc2C1=O | > 65.4 µM | > 100 µM | > 70.8 µM | > 65.8 µM | > 95.5 µM | > 100 µM | > 100 µM | > 100 µM | > 100 µM | > 100 µM | > 94.4 µM | > 100 µM | – |
| C=CCCCC1(C)CCCCNC1=O (configuration not stated) | > 10 µM | > 10 µM | > 10 µM | – | > 10 µM | > 10 µM | > 10 µM | > 10 µM | > 10 µM | > 10 µM | > 10 µM | > 10 µM | > 10 µM |
